Results from article PMC9228811, “Identification and Characterization of a Potential Antimicrobial Peptide Isolated from Soil Brevibacillus sp. WUL10 and Its Activity against MRSA Pathogens” (Tropical Medicine and Infectious Disease, 2022).
Values after ≈ are worked out from the molar mass of the structure shown. Like-named read-outs stand apart in the source and are kept apart here. No end group written: not given here.

Legend:
[1] = test system: MRSA isolate 142; assay: Broth microdilution MIC and MBC (CLSI); type: cell-based; settings: Staphylococcus aureus
Experimental: (§1) Determination of MIC by broth microdilution was followed the Clinical and Laboratory Standard Institute (CLSI) guidelines. Cation-adjusted Mueller–Hinton broth (CAMHB) was used as a diluent. The purified substance (100 μL) was prepared by making the 2-fold dilution in the range of 0.125–32 μg/mL, and an aliquot (10 μL) of diluted suspension of the indicator strains (5 × 10^5 CFU/mL) was added into each well. Indicator strains without sample were a positive control, while CAMHB alone was the negative control. The 96-well plates were incubated at 37 °C for 24 h and measured the bacterial growth. […] MBC was determined by further spreading 10 µL of sample in each well on MH agar and incubated at 37 °C overnight.

[2] = test system: MRSA isolate 1096; assay: Broth microdilution MIC and MBC (CLSI); type: cell-based; settings: Staphylococcus aureus
Experimental: as §1

[3] = test system: MRSA isolate 2468; assay: microbe, parasite or virus in culture; type: cell-based, Staphylococcus aureus
Experimental: as §1
(§2) The peptide sequence of the purified substance of WUL10 was analyzed by the Q-Exactive HF LC-MS/MS Orbitrap system. Briefly, the protonated peptides were first desalted on-line on a reverse-phase C18 PepMap 100 trapping column before being resolved onto a C18 PepMap 100 capillary column with a 70 min gradient of 0.1% HCO2H/H2O (mobile phase (MP): A) and 0.1% HCO2H/CH3CN (MP: B) at a flow rate of 300 nL/min. Peptides were analyzed by applying a data-dependent Top5 acquisition mode followed by a higher-energy collisional dissociation (HCD) at collision energy of 28. Full-scan (MS) mass spectra were acquired from m/z 400 to 2000 with an AGC target set at 3 × 10^6 ions and a resolution of 120,000. MS/MS scan was initiated when the ACG target reached 2 × 10^5 ions and a resolution of 30,000. The raw LC-MS file from LC-MS/MS was imported to PeakX studio 10.0 (Bioinformatics Solutions Inc., Waterloo, CA, USA). The peptide ion intensity with +2 to +5 charge states was automated de novo peptide sequenced with default parameters with minor modifications. Briefly, mass error tolerance for MS and MS/MS were 15 ppm and 0.1 Da, respectively. HCD-fragmentation series on b- and y-ion series were used to predict the peptide sequence. The confidence score was set at the high level of confidence to obtain a reliable set of high-precision peptides. The acceptable de novo peptide sequences were achieved by filtering average local confidence (ALC) to ≥50%. The acceptable peptide sequences with an average local confidence (ALC) threshold of ≥50% were submitted to the antimicrobial peptide scanner to analyze the probability of antimicrobial peptides. A number of resulting peptides (18 synthetic peptides) were synthesized by Kelowna International Scientific Inc. (Taipei City, Taiwan) with purity of more than 85%, and they were prepared in a 2-fold dilution with CAMHB before examining the antimicrobial activity by broth microdilution. MIC and MBC were measured from 3 independent replicates.

[4] = test system: S. aureus TISTR 517; assay: microbe, parasite or virus in culture; type: cell-based, Staphylococcus aureus
Experimental: as §1, §2

[5] = test system: MRSA isolate 2468; assay: Agar well diffusion assay; type: cell-based, Staphylococcus aureus; settings: mean ± SD, n = 3
Experimental: (§3) WUL10 colony was inoculated in 50 mL of half formula of Luria-Bertani (half LB) broth (Titan Biotech Ltd., Rajasthan, India), and incubated at 30 °C, 150 rpm overnight. The culture was adjusted the turbidity equivalent to 0.5 McFarland standard by 0.85% NaCl, and then, 2 mL of this preculture was transferred in 200 mL of half LB broth. The culture was shaken at 30 °C, 150 rpm for 7 days, and an aliquot of samples (2 mL) was collected at different time interval. One mL of sample was measured the cell growth by spectrophotometer at 625 nm (Thermo Fisher Scientific, Waltham, MA, USA). The remaining sample was centrifuged at 10,000× g, 4 °C for 30 min (Sigma-Aldrich Co., St. Louis, MO, USA), and the CFS was examined for the antimicrobial activity against all indicator strains by agar well diffusion assay. Three replicates of experiments were carried out, and the zone of inhibition was reported as mean ± SD.
(§4) The colonies of indicator strains were inoculated in 9 mL of sterile 0.85% NaCl, and the cell suspensions were adjusted the turbidity comparably to 0.5 McFarland standard. They were swabbed onto the MH agar, and the wells were punched onto the agar using a pipette tip. One hundred µL of CSF or purified substance of WUL10 was loaded into each well, and the plates were incubated at 37 °C for 24 h. […] The experiments were performed in three independent experiments, and the inhibition zone was measured and reported as mean ± SD [21].

[6] = test system: MRSA isolate 142; assay: Agar well diffusion assay; type: cell-based, Staphylococcus aureus; settings: Table 1 experiment, mean ± SD, n = 3
Experimental: as §3, §4

[7] = test system: MRSA isolate 1096; assay: Agar well diffusion assay; type: cell-based, Staphylococcus aureus; settings: Table 1 experiment, mean ± SD, n = 3
Experimental: as §3, §4

[8] = test system: S. aureus TISTR 517; assay: Agar well diffusion assay; type: cell-based, Staphylococcus aureus; settings: mean ± SD, n = 3
Experimental: as §3, §4

[9] = antibiotic 30 µg, Table 4 experiment
[10] = antibiotic 1 µg, Table 1 experiment
[11] = broth microdilution, CAMHB, 37 °C 24 h, n = 3
[12] = antibiotic 30 µg, Table 1 experiment

**Q.** Which MBC [1] does the source give for CN[C@H](CC(C)C)C(=O)N[C@H]1C(=O)N[C@@H](CC(N)=O)C(=O)N[C@H]2C(=O)N[C@H]3C(=O)N[C@H](C(=O)N[C@H](C(=O)O)c4cc(O)cc(O)c4-c4cc3ccc4O)[C@H](O)c3ccc(c(Cl)c3)Oc3cc2cc(c3O[C@@H]2O[C@H](CO)[C@@H](O)[C@H](O)[C@H]2O[C@H]2C[C@](C)(N)[C@H](O)[C@H](C)O2)Oc2ccc(cc2Cl)[C@H]1O [Vancomycin] here?
**A.** 2 µg/mL (≈ 1.38 µM)

**Q.** What about the MIC ([1]; 24 h) of the same compound?
**A.** 2 µg/mL (≈ 1.38 µM)

**Q.** And the MBC [2]?
**A.** 2 µg/mL (≈ 1.38 µM)

**Q.** And the MIC ([2]; 24 h)?
**A.** 2 µg/mL (≈ 1.38 µM)

**Q.** And the MBC ([3]; Staphylococcus aureus)?
**A.** 2 µg/mL (≈ 1.38 µM)

**Q.** What about the MIC ([3]; Staphylococcus aureus, 24 h) of the same compound?
**A.** 2 µg/mL (≈ 1.38 µM)

**Q.** And the MBC ([4]; Staphylococcus aureus, TISTR517)?
**A.** 2 µg/mL (≈ 1.38 µM)

**Q.** What about the MIC ([4]; Staphylococcus aureus, TISTR517, 24 h) of the same compound?
**A.** 2 µg/mL (≈ 1.38 µM)

**Q.** And the “Zone of Inhibition” value [5, 9]?
**A.** 26.75 ± 0.18 mm

**Q.** How did the “Zone of Inhibition” value ([6]; antibiotic 1 µg) turn out when Cc1onc(-c2ccccc2)c1C(=O)N[C@@H]1C(=O)N2[C@@H]1SC(C)(C)[C@@H]2C(=O)O [Oxacillin] was run?
**A.** 0.00 ± 0.00 mm

**Q.** What about the “Zone of Inhibition” value [5, 10] of the same compound?
**A.** 0.00 ± 0.00 mm

**Q.** And the “Zone of Inhibition” value ([7]; antibiotic 1 µg)?
**A.** 0.00 ± 0.00 mm

**Q.** What about the “Zone of Inhibition” value [8, 10] of the same compound?
**A.** 29.29 ± 0.39 mm

**Q.** Which results are given for KVLVKYLGGLLKLAALMV [synthetic peptide]?
**A.** MIC [3, 11]: 16 µg/mL; MIC [4, 11]: 16 µg/mL

**Q.** Which results are given for CO[C@@]1(NC(=O)Cc2cccs2)C(=O)N2C(C(=O)O)=C(COC(N)=O)CS[C@@H]21 [Cefoxitin]?
**A.** MIC ([4]; Staphylococcus aureus, TISTR517, broth microdilution, CAMHB, 37 °C 24 h, n = 3, read-out: MIC): 2 µg/mL (≈ 4.68 µM); Zone of Inhibition ([6]; antibiotic 30 µg): 0.00 ± 0.00 mm; Zone of Inhibition [5, 12]: 0.00 ± 0.00 mm; Zone of Inhibition ([7]; antibiotic 30 µg): 0.00 ± 0.00 mm; Zone of Inhibition [8, 12]: 32.68 ± 0.15 mm; Zone of Inhibition [8, 9]: 32.77 ± 0.55 mm
